Measured values: ChEMBL document CHEMBL1255495, “Experimental conditions that enhance potency of an antibacterial oligo-acyl-lysyl” (2010)
≈ marks a conversion by molar mass, not a printed value. Calls of active or inactive are those of the source. The calls are words filed in the database; no cut-off is given here.

Experiments:
Listeria monocytogenes [1] = test: Antibacterial activity against Listeria monocytogenes ATCC 19115 assessed as reduction in bacterial population at 0.01 to 10 uM up to 15 mins by time-kill assay; format: functional
Listeria monocytogenes [2] = test: Antibacterial activity against Listeria monocytogenes ATCC 19115 after 24 hrs by microdilution method in presence of 1030 mM NaCl; format: functional; details: ATCC 19115, 24 h
Listeria monocytogenes [3] = test: Antibacterial activity against Listeria monocytogenes ATCC 19115 after 24 hrs by microdilution method in presence of 80 mM MgCl2; format: functional; details: ATCC 19115, 24 h
Staphylococcus aureus [4] = test: Ratio of MIC for methicillin-resistant Staphylococcus aureus isolate 15903 in presence of 85 mM NaCl to MIC for methicillin-resistant Staphylococcus aureus isolate 15903 at pH 8.5 after 24 hrs at 48 degC in presence of 85 mM NaCl; format: functional
Listeria monocytogenes [5] = test: Antibacterial activity against Listeria monocytogenes ATCC 19115 after 24 hrs at 37 degC by microdilution method; format: functional; details: ATCC 19115, 24 h
Listeria monocytogenes [6] = test: Antibacterial against Listeria monocytogenes ATCC 19115 at pH 8.5 after 24 hrs at 48 degC by microdilution method in presence of 85 mM NaCl; format: functional; details: ATCC 19115, 24 h
Lipid bilayer = test: Binding affinity to phospholipid membrane model at pH 8.5 by surface plasmon resonance in presence of 140 mM NaCl
Listeria monocytogenes [7] = test: Antibacterial activity against Listeria monocytogenes ATCC 19115 after 24 hrs by microdilution method in presence of 160 mM MgCl2; format: functional; details: ATCC 19115, 24 h
Staphylococcus aureus [8] = test: Antibacterial activity against methicillin-resistant Staphylococcus aureus isolate 15903 after 24 hrs by microdilution method in presence of 170 mM NaCl; format: functional; details: isolate 15903, 24 h
Escherichia coli [9] = test: Antibacterial activity against Escherichia coli O157:H7 ATCC 43894 after 24 hrs by microdilution method in presence of 40 mM MgCl2; format: functional; details: O157:H7 ATCC 43894, 24 h
Staphylococcus aureus [10] = test: Antibacterial activity against methicillin-resistant Staphylococcus aureus isolate 15903 assessed as reduction in bacterial population at 0.01 to 10 uM up to 15 mins by time-kill assay; format: functional
Listeria monocytogenes [11] = test: Antibacterial activity against Listeria monocytogenes ATCC 19115 after 24 hrs by microdilution method in presence of 20 mM MgCl2; format: functional; details: ATCC 19115, 24 h
Escherichia coli [12] = test: Antibacterial activity against Escherichia coli O157:H7 ATCC 43894 at pH 7 after 24 hrs by microdilution method; format: functional; details: O157:H7 ATCC 43894, 24 h
Escherichia coli [13] = test: Antibacterial activity against Escherichia coli O157:H7 ATCC 43894 after 24 hrs by microdilution method in presence of 160 mM MgCl2; format: functional; details: O157:H7 ATCC 43894, 24 h
Listeria monocytogenes [14] = test: Antibacterial activity against Listeria monocytogenes ATCC 19115 after 24 hrs by microdilution method in presence of 40 mM MgCl2; format: functional; details: ATCC 19115, 24 h
Escherichia coli [15] = test: Antibacterial activity against Escherichia coli O157:H7 ATCC 43894 at pH 3.5 after 24 hrs by microdilution method; format: functional; details: O157:H7 ATCC 43894, 24 h
Staphylococcus aureus [16] = test: Antibacterial activity against methicillin-resistant Staphylococcus aureus isolate 15903 after 24 hrs by microdilution method in presence of 1030 mM NaCl; format: functional; details: isolate 15903, 24 h
Listeria monocytogenes [17] = test: Antibacterial activity against Listeria monocytogenes ATCC 19115 at pH 8.5 after 24 hrs by microdilution method; format: functional; details: ATCC 19115, 24 h
Staphylococcus aureus [18] = test: Antibacterial activity against methicillin-resistant Staphylococcus aureus isolate 15903 after 24 hrs by microdilution method in presence of 515 mM NaCl; format: functional; details: isolate 15903, 24 h
Staphylococcus aureus [19] = test: Antibacterial activity against methicillin-resistant Staphylococcus aureus isolate 15903 after 24 hrs at 48 degC by microdilution method; format: functional; details: isolate 15903, 24 h
Listeria monocytogenes [20] = test: Antibacterial activity against Listeria monocytogenes ATCC 19115 after 24 hrs by microdilution method in presence of 85 mM NaCl; format: functional; details: ATCC 19115, 24 h
Escherichia coli [21] = test: Antibacterial activity against Escherichia coli O157:H7 ATCC 43894 assessed as reduction in bacterial population at 0.01 to 10 uM up to 15 mins by time-kill assay; format: functional
Listeria monocytogenes [22] = test: Antibacterial activity against Listeria monocytogenes ATCC 19115 after 24 hrs at 25 degC by microdilution method; format: functional; details: ATCC 19115, 24 h
Listeria monocytogenes [23] = test: Antibacterial activity against Listeria monocytogenes ATCC 19115 at pH 3.5 after 24 hrs by microdilution method; format: functional; details: ATCC 19115, 24 h
Staphylococcus aureus [24] = test: Antibacterial activity against methicillin-resistant Staphylococcus aureus isolate 15903 at pH 5.5 after 24 hrs by microdilution method; format: functional; details: isolate 15903, 24 h
Listeria monocytogenes [25] = test: Antibacterial activity against Listeria monocytogenes ATCC 19115 after 24 hrs by microdilution method in presence of 260 mM NaCl; format: functional; details: ATCC 19115, 24 h
Escherichia coli [26] = test: Antibacterial activity against Escherichia coli O157:H7 ATCC 43894 after 24 hrs at 48 degC by microdilution method; format: functional; details: O157:H7 ATCC 43894, 24 h
Staphylococcus aureus [27] = test: Antibacterial activity against methicillin-resistant Staphylococcus aureus isolate 15903 at pH 7 after 24 hrs by microdilution method; format: functional; details: isolate 15903, 24 h
Staphylococcus aureus [28] = test: Antibacterial activity against methicillin-resistant Staphylococcus aureus isolate 15903 after 24 hrs by microdilution method in presence of 85 mM NaCl; format: functional; details: isolate 15903, 24 h

## CCCCCCCCCCCC(=O)N[C@@H](CCCCN)C(=O)NCCCCCCCC(=O)N[C@@H](CCCCN)C(=O)NCCCCCCCC(=O)N[C@@H](CCCCN)C(=O)NCCCCCCCC(=O)N[C@@H](CCCCN)C(=O)NCCCCCCCC(=O)N[C@@H](CCCCN)C(=O)NCCCCCCCC(=O)N[C@@H](CCCCN)C(=O)NCCCCCCCC(=O)N[C@@H](CCCCN)C(=O)NCCCCCCCC(=O)N[C@@H](CCCCN)C(N)=O
Listeria monocytogenes [1]
  inhibition (INH): 99%
Listeria monocytogenes [2]
  MIC: 12.5 µM
Listeria monocytogenes [3]
  MIC: 12.5 µM
Staphylococcus aureus [4]
  Ratio: 16
Listeria monocytogenes [5]
  MIC: 1.6 µM (≈ 3.54 µg/mL)
Listeria monocytogenes [6]
  MIC: 0.05 µM
Lipid bilayer
  Activity: Active
Listeria monocytogenes [7]
  MIC: 25 µM
Staphylococcus aureus [8]
  MIC: 50 µM
Escherichia coli [9]
  MIC: 6.3 µM
Staphylococcus aureus [10]
  inhibition (INH): 99%
Listeria monocytogenes [11]
  MIC: 3.1 µM
Escherichia coli [12]
  MIC: 3.1 µM (≈ 6.86 µg/mL)
Escherichia coli [13]
  MIC: 50 µM
Listeria monocytogenes [14]
  MIC: 6.3 µM
Escherichia coli [15]
  MIC: > 50 µM
Staphylococcus aureus [16]
  MIC: > 50 µM
Listeria monocytogenes [17]
  MIC: 0.8 µM (≈ 1.77 µg/mL)
Staphylococcus aureus [18]
  MIC: > 50 µM
Staphylococcus aureus [19]
  MIC: 3.1 µM (≈ 6.86 µg/mL)
Listeria monocytogenes [20]
  MIC: 1.6 µM
Escherichia coli [21]
  inhibition (INH): 99%
Listeria monocytogenes [22]
  MIC: 3.1 µM (≈ 6.86 µg/mL)
Listeria monocytogenes [23]
  MIC: > 50 µM
Staphylococcus aureus [24]
  MIC: > 50 µM
Listeria monocytogenes [25]
  MIC: 3.1 µM
Escherichia coli [26]
  MIC: 1.6 µM (≈ 3.54 µg/mL)
Staphylococcus aureus [27]
  MIC: 12.5 µM (≈ 27.7 µg/mL)
Staphylococcus aureus [28]
  MIC: 12.5 µM
